Converted amounts (≈) assume the structure as drawn. The source made the active and inactive calls. The calls are words filed in the database; no cut-off is given here.

The inhibition is how much of the control response was suppressed. A higher inhibition goes with a response far below the control. As a reminder, the Inhibition is how much of the control response was suppressed. Higher therefore signals strong suppression. The term IC50 denotes the concentration needed to halve the response being measured.

Test [1] relates to A549. It is filed as functional, Homo sapiens.
Description: Tested in vitro for cytotoxic activity against lung carcinoma (A-549) cell line
The subject of test [2] is HCT-8. The experiment in a line: Tested in vitro for cytotoxic activity against ileocecal carcinoma (HCT-8) cell line. Type of test: functional, Homo sapiens.
For test [3], the system named is HOS. The experiment in a line: Tested in vitro for cytotoxic activity against bone(HOS) cell line. It is filed as functional, Homo sapiens.
Test [4] has as its system 1A9. The experiment in a line: Tested in vitro for cytotoxic activity against Human ovarian cancer (IA9) cell line. Type of test: functional.
Test [5] relates to KB. Put plainly: Tested in vitro for cytotoxic activity against epidermoid carcinoma of the nasopharynx(KB) cell line. Type of test: functional, Homo sapiens.
Test [6] relates to MCF7. Put plainly: Tested in vitro for cytotoxic activity against breast cancer (MCF-7) cell line. It is filed as functional, Homo sapiens.
Test [7] concerns PC-3. The experiment in a line: Tested in vitro for cytotoxic activity against prostate cancer (PC3) cell line. It is filed as functional, Homo sapiens.
In test [8] the test system is SK-MEL-2. The experiment in a line: Tested in vitro for cytotoxic activity against melanoma (SKMEL-2) cell line. Type of test: functional, Homo sapiens.
The subject of test [9] is U-87 MG. Put plainly: Tested in vitro for cytotoxic activity against glioblastoma (U-87-MG) cell line;NA means not active. Type of test: functional, cell-based. The following applies: Homo sapiens; U-87MG ATCC.
Test [10] has as its system KB. Put plainly: Tested in vitro for cytotoxic activity against P-glycoprotein-expressing epidermoid carcinoma of the nasopharynx(KB-VIN) cell line. Type of test: functional, Homo sapiens.
Test [11] has as its system HCT-8. The experiment in a line: Tested in vitro for cytotoxic activity against ileocecal carcinoma (HCT-8) cell line; NA means Not active. Type of test: functional, cell-based. The following applies: Homo sapiens.
Test [12] relates to HOS. Put plainly: Tested in vitro for cytotoxic activity against bone(HOS) cell line; NA means Not active. To be noted: Homo sapiens. It is filed as functional, cell-based.
The test system of test [13] is 1A9. The experiment in a line: Tested in vitro for cytotoxic activity against Human ovarian cancer (IA9) cell line; NA means Not active. It is filed as functional, cell-based.
In test [14] the test system is KB. Put plainly: Tested in vitro for cytotoxic activity against epidermoid carcinoma of the nasopharynx(KB) cell line; NA means Not active. To be noted: Homo sapiens. It is filed as functional, cell-based.
In test [15] the test system is U-87 MG. The experiment in a line: Tested in vitro for cytotoxic activity against glioblastoma (U-87-MG) cell line; NA means Not active. It is filed as functional, cell-based. To be noted: Homo sapiens; U-87MG ATCC.
For test [16], the system named is 1A9. Put plainly: Tested in vitro for cytotoxic activity against human ovarian cancer (IA9)cell line. Type of test: functional.
Test [17] has as its system SK-MEL-2. Put plainly: Tested in vitro for cytotoxic activity against melanoma (SKMEL-2) cell line; NA means Not active. Type of test: functional, cell-based. The following applies: Homo sapiens.
For test [18], the system named is PC-3. The experiment in a line: Tested in vitro for cytotoxic activity against prostate cancer (PC3) cell line; NA means Not active. Type of test: functional, cell-based. To be noted: Homo sapiens.
Test [19] deals with Tubulin (Bos taurus) (UniProt Q6B856+Q862L2+Q862F3). Put plainly: Tested for inhibition of radioligand colchicine binding to bovine tubulin. It is filed as protein assay. The following applies: concentration not given here.
Test [20] concerns the target Tubulin (Bos taurus, UniProt Q6B856+Q862L2+Q862F3). Put plainly: Inhibition of bovine tubulin polymerization. Type of test: functional.

Take `COc1ccc(-c2nc(O)c3ccccc3n2)cc1`: the ED50 in [1], in [2], in [3], in test [4], in test [5] and in test [6] was over 20 µg/mL each time. Also, the ED50 in test [7], in test [8] and in test [10] was over 20 µg/mL in each case. Besides, in test [9], the ED50 result is “inactive”.

For the compound `COc1cc(OC)cc(-c2nc(O)c3ccccc3n2)c1`, the ED50 in test [1], in test [6], in test [7], in test [8] and in test [10] was over 20 µg/mL throughout. For the same compound, the ED50 result in test [11], in test [12], in [13], in [14] and in test [15] was “inactive” throughout.

`COc1ccccc1-c1nc(O)c2ccccc2n1`: the ED50 in test [1], in test [3], in [16], in [5], in [6] and in test [10] was over 20 µg/mL each time. Moreover, the ED50 entry in [11], in test [17], in test [15] and in [18] was “inactive” each time.

Consider `COc1cccc(-c2nc(O)c3cc(N4CCCC4)ccc3n2)c1`, for which the ED50 in test [1] was found to be 0.5 µg/mL (≈ 1.56 µM); in test [2], 0.06 µg/mL (≈ 0.187 µM); in [3], 7 µg/mL (≈ 21.8 µM); in test [4] it was 0.09 µg/mL (≈ 0.28 µM); in test [5], 0.23 µg/mL (≈ 0.716 µM); in [6] it was 0.22 µg/mL (≈ 0.685 µM). The ED50 in test [7] amounted to 15 µg/mL (≈ 46.7 µM); in test [8], 0.09 µg/mL (≈ 0.28 µM); in test [10] it was 0.1 µg/mL (≈ 0.311 µM). Further, in test [19], the inhibition turned out to be 24%.

Regarding `COc1cccc(C2NC(=O)c3ccccc3N2)c1OC` (configuration not stated), the ED50 in test [1], in test [2], in [3], in test [5], in test [6] and in test [7] was over 20 µg/mL in each case. Moreover, the ED50 in [8] was under 20 µg/mL; in [10], 8.6 µg/mL (≈ 30.2 µM). Moreover, the results for the Inhibition in test [5] and in test [7] were 41% and 20%, respectively. For the same compound, the ED50 result in [9] is “inactive”. For the same compound, the IC50 in [20] is over 40 µM.

As for `COc1cccc(-c2nc(O)c3ccccc3n2)c1OC`, the ED50 in test [1] was over 20 µg/mL; in test [6] it was 20 µg/mL (≈ 70.8 µM); in [7] it was 20 µg/mL (≈ 70.8 µM); in test [10] it was over 20 µg/mL. Moreover, the ED50 entry in test [11], in [12], in [13], in [14], in test [17] and in test [15] was “inactive” throughout.

For the origin of these results see ChEMBL document CHEMBL1133524 (J Med Chem, 2000).
